Laboratory results from patent US5985603A, “P2x receptor DNA and protein sequence” (Glaxo Group Limited, priority 1994, dated 1999).
Counter-ions that a name gives are not always drawn. Like-named read-outs stand apart in the source and are kept apart here.

What was measured:
Assay type in all cases: cell-based
hP2X [1] = molecular target: T1, hP2X (Homo sapiens, UniProt P51575); assay: inward currents evoked by purinoceptor agonists in Xenopus oocytes expressing hP2X; conditions: for relative potency: relative to ATP, from EEC50; for full agonist activity: concentration-response curves; for Emax at 100 µM: read-out: small inward current, % of the response to 100 μM ATP; for Emax: read-out: maximal response, % of the maximal ATP response
T1 construct: expressed in transfected cells; host or cells: Xenopus oocytes injected with in vitro transcribed RNA
T1 sequence (P51575 1-399): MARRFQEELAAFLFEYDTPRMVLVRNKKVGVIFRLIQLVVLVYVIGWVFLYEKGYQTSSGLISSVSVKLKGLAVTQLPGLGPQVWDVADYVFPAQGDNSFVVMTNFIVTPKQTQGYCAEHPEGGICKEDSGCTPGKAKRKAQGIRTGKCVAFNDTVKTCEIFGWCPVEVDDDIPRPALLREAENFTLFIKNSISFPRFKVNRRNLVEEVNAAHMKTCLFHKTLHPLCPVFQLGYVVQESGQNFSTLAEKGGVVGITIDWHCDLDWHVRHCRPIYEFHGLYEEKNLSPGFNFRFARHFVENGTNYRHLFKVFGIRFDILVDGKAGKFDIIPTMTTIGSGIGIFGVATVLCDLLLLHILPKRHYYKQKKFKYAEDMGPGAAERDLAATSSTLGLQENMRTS
Procedure: (§1) Human urinary bladder P2X cDNA, subcloned into the pBKCMV expression vector, was linearized with Notl, and transcribed in vitro with T3 polymerase in the presence of cap analogue m7G(5')ppp(5')G. Defolliculated Xenopus oocytes (Bertrand et al, Electrophysiology of neuronal nicotinic acetylcholine receptors expressed in Xenopus oocytes following nuclear injection of genes or cDNAs Meth Neurosci 4: 174-193 (1991)) were injected with 50 ng of human P2X in vitro transcribed RNA, and incubated at 18° C. for 2-6 days in the ND96 solution (mM): NaCl96, KCl2, MgCl2 1, CaCl2 2, sodium pyruvate 5, HEPES 5, ph 7.6-7.5, penicillin (10 U/ml), and streptomycin (10 μg/ml).
Oocytes were placed in a 1 ml chamber and superfused at 2-3 ml/min with ND96 solution with 0.1 mM BaCl2 replacing the 2 mM CaCl2 to prevent activation of endogenous calcium-activated chloride currents (Barish, A transient calcium-dependent chloride current in the immature Xenopus oocytes J Physiol 342: 309-325 (1983)). Currents were measured using a two-electrode voltage-clamp amplifier (Geneclamp Axon Instruments)at a holding potential of -60 mV. Microelectrodes were filled with 3 M KCl (0.5-2 M.OMEGA.). Data were collected using PClamp software (Axon Instruments). […] Antagonists were applied both in the superfusate and together with ATP in the U-tube solution.
Concentration response curves for purinoceptor agonists were fitted with a Hill slope of 1. […] Data are presented throughout as mean ± SEM for a given number of oocytes.

hP2X [2] = molecular target: T1, hP2X; assay: antagonist inhibition of ATP-evoked currents in Xenopus oocytes expressing hP2X; conditions: for inhibition of inward currents evoked by 10 μM ATP: 10 μM ATP (approximately EC90); for reversibility of antagonism on washout: PPADS, P5P
Procedure: as §1
Oocytes were placed in a 1 ml chamber and superfused at 2-3 ml/min with ND96 solution with 0.1 mM BaCl2 replacing the 2 mM CaCl2 to prevent activation of endogenous calcium-activated chloride currents (Barish, A transient calcium-dependent chloride current in the immature Xenopus oocytes J Physiol 342: 309-325 (1983)). Currents were measured using a two-electrode voltage-clamp amplifier (Geneclamp Axon Instruments)at a holding potential of -60 mV. Microelectrodes were filled with 3 M KCl (0.5-2 M.OMEGA.). Data were collected using PClamp software (Axon Instruments). ATP and other purinoceptor agonists were applied by a U-tube perfusion system (Fenwick et al, A patch clamp study of bovine chromaffin cells and their sensitivity to acetylcholine J Physiol 331: 577-597 (1982)) placed close (200-500 μm) to the oocyte. […] Concentration response relationships to ATP and its analogs were determined by measuring the peak amplitude of responses to a 5 s application of agonist applied at 10 min intervals. Responses to agonists were normalized in each oocyte to the peak response evoked by 100 μM ATP; 100 μM ATP was usually applied at the beginning and at the end of an experiment to determine if there was any rundown of the response. […] Antagonists were applied both in the superfusate and together with ATP in the U-tube solution. Antagonists were superfused for 5-10 min prior to the application of ATP.
Concentration response curves for purinoceptor agonists were fitted with a Hill slope of 1. Equi-effective concentrations i.e. concentration of agonist, giving 50% of the response to 100 μM ATP, (EEC50) were determined from individual concentration response curves. […] Data are presented throughout as mean ± SEM for a given number of oocytes.

PC12 P2X receptor = molecular target: T2, PC12 P2X receptor (Rattus norvegicus, UniProt P49653); assay: functional properties of cloned P2X receptors (electrical recordings): PC12
T2 construct: host or cells: HEK293 cells (oocytes are also named for the functional characterisation of clone 3)
T2 sequence (P49653 1-472): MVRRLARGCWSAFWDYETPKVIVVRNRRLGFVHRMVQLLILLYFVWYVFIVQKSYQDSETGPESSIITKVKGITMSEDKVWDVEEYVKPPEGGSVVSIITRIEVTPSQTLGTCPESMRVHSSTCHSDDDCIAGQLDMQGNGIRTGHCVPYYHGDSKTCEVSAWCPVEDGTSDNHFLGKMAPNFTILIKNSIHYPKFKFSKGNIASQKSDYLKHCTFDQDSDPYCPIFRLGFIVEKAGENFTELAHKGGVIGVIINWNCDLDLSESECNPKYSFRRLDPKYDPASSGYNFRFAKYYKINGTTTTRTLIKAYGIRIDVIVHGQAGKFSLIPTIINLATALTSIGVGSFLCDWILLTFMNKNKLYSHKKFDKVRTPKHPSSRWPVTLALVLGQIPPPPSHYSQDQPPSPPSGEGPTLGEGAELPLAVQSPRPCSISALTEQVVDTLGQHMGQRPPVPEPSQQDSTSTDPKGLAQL
Procedure: (§2) HEK 293 cells were transfected by the lipofectin method (Felgner et al., Proc. Nat'l. Acad. Sci. USA 84 7413-7417 (1987)) with P2X -plasmid. DNA concentration used was 1 mg/2 ml medium placed into a 35 mm petri dish containing four 11 mm diameter coverslips on which HEK cells were placed at 10,000 cells per coverslip. […] Currents were recorded from HEK 293 cells using whole-cell recording methods and the AXOPATCH™ 200 amplifier (Axon Instruments); patch pipettes (5 M.OMEGA.) contained (mM) Cs or K aspartate 140, NaCl 5, EGTA 11, HEPES 5. The external solution was (mM) NaCl 150, KCl2, CaCl2 2, MgCl2 1, HEPES 5 and glucose 11; the pH and osmolarity of both solutions were maintained at 7.3 and 305 mosmol/l respectively. All recordings performed at room temperature. Data acquisition and analysis were performed using pCLAMP™ and AXOGRAPH™ software (Axon Instruments). […] The pH and osmolarity of the solutions were 7.4 and 295 mosmol/l respectively. For single channel measurements, a […]™ 500 amplifier and outside-out recording methods were used (Adelman et al., Neuron 9 209-216 (1992)). Wax-coated patch pipettes (5-10 M.OMEGA.) contained (mM) K-gluconate 115, HEPES 5, BAPTA 5 and MgCl2 0.5, external solution was 96 mM NaCl, 2 mM KCl, 1.8 mM CaCl2, 1 mM MgCl2, 5 mM Hepes pH 7.6, and 5 mM sodium pyruvate.
(§3) The functional characterisation of the clone illustrated in FIG. 2 (referred to herein as clone 3) was carried out by electrical recordings from transfected HEK293 cells and from oocytes injected with the in vitro transcribed RNA, as described in Example 4 for the rat vas deferens P2X receptor. Table A summarizes the main properties of clone 3 as compared to those of rat vas/human bladder cDNA clone, and the PC12 cDNA clone (provided by David Julius and Tony Brake of the University of California at San Francisco).

[3] = molecular target: T3, rat superior cervical ganglion P2X receptor (clone 3) (Rattus norvegicus, UniProt P51577); assay: functional properties of cloned P2X receptors (electrical recordings): clone 3; conditions: for antagonist profile, clone 3 (block): Table A, concentration not given; for sensitivity of ATP-activated currents to antagonism, compared with rat vas deferens/human bladder and PC12 forms: clone 3 (FIG. 15)
T3 construct: The insert appeared to be a full length cDNA; expressed in transfected cells; host or cells: HEK293 cells transfected with pcDNA3 construct p464 (also oocytes injected with in vitro transcribed RNA)
T3 sequence (P51577 1-388): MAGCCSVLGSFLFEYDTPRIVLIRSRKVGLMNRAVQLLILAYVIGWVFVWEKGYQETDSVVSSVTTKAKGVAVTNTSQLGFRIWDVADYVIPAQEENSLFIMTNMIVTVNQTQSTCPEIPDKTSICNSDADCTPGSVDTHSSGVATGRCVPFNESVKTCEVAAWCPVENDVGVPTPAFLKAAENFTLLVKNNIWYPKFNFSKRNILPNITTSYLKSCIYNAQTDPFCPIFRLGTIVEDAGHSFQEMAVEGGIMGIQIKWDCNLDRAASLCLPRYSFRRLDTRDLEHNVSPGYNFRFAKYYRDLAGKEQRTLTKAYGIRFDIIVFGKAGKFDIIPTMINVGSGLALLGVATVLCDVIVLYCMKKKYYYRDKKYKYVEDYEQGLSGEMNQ
Procedure: as §2, §3

For “2'-3'-O-(4-benzoylbenzol)ATP tetraethylamonium salt [BzATP]”, the “maximal response, % of the maximal ATP response” value (hP2X [1]) was “about 65%”, the EC50 (hP2X [1]; read-out: EEC50: equieffective concentration producing an inward current equivalent to 50% of the peak response to 100 μM ATP, Hill slope of 1, mean ± SEM, n = 3-4, ATP value from mean data from all experiments) was 4.2 ± 2.2 µM and the relative potency (hP2X [1]) was 0.20.

For `Nc1nc(Cl)nc2c1ncn2[C@@H]1O[C@H](COP(=O)(O)OP(=O)(O)OP(=O)(O)O)[C@@H](O)[C@H]1O` [2chloroATP, 2-chloro-ATP tetra sodium salt], the EC50 (hP2X [1]) was 0.76 ± 0.1 µM, the “comparison of concentration-effect curves” value (hP2X [1]; ATP, 2MeSATP and 2-chloro-ATP) was “superimposable” and the full agonist activity (hP2X [1]) was “full agonists”. For the same compound, the relative potency (hP2X [1]) was 1.08.

In the case of `Nc1ncnc2c1ncn2[C@@H]1O[C@H](COP(=O)([O-])OP(=O)([O-])[O-])[C@@H](O)[C@H]1O.[Na+].[Na+].[Na+]` [ADP, adenosine 5'-diphosphate sodium salt], the EC50 (hP2X [1]) is reported as 34.3 ± 16 µM, the full agonist activity (hP2X [1]) is reported as “full agonists” and the relative potency (hP2X [1]) is reported as 0.024.

`Nc1ncnc2c1ncn2[C@@H]1O[C@H](COP(=O)(O)O)[C@@H](O)[C@H]1O` [AMP, adenosine 5'-monophosphate sodium salt] gave an Emax at 100 µM (hP2X [1]) of 6.08 ± 2%.

For `Nc1ncnc2c1ncn2[C@@H]1O[C@H](COP(=O)(O)OP(=O)(O)OP(=O)(O)OP(=O)(O)OP(=O)(O)OC[C@H]2O[C@@H](n3cnc4c(N)ncnc43)[C@H](O)[C@@H]2O)[C@@H](O)[C@H]1O` [AP5A, p1, p5-di [adenosine-5'] pentaphosphate trilithium salt], the EC50 (hP2X [1]) was 2 ± 0.2 µM, the Emax (hP2X [1]) was roughly 65% and the relative potency (hP2X [1]) was 0.41.

Compound `Nc1ncnc2c1ncn2[C@@H]1O[C@H](COP(=O)(O)OP(=O)(O)OP(O)(O)=S)[C@@H](O)[C@H]1O` [ATP-γ-S, adenosine 5'-O-(-3-thiophosphate) tetralithium salt] has an EC50 (hP2X [1]) of 10.6 ± 3.8 µM, an Emax (hP2X [1]) of roughly 65% and a relative potency (hP2X [1]) of 0.077.

Work on `Nc1ncnc2c1ncn2[C@@H]1O[C@H](CO)[C@@H](O)[C@H]1O` [Adenosine] yielded an Emax at 100 µM (hP2X [1]) of 2.3 ± 1.5%.

`O=S(=O)(O)c1cc(N=C=S)ccc1C=Cc1ccc(N=C=S)cc1S(=O)(=O)O` [DIDS, 4,4'-diisothiocyanatostilbene 2,2'-disulphonic acid, disodium salt] was tested, and the IC50 (hP2X [2]) was roughly 1000 nM, the “inhibition of inward currents evoked by 10 μM ATP” value (“inhibition” below) (hP2X [2]) was “inhibited inward currents evoked by 10 μM ATP” and the “reversibility of inhibitory effects on washout” value (hP2X [2]; DIDS 100 μM) was “very slow to reverse on washout”. The IC50 (PC12 P2X receptor) was greater than 100 µM.

In the case of `Cc1ncc(COP(=O)(O)O)c(C=O)c1O` [P5 P, Pyridoxal 5-phosphate monohydrate], the IC50 (hP2X [2]) is reported as roughly 20000 nM, the “inhibition” value (hP2X [2]) is reported as “inhibited inward currents evoked by 10 μM ATP” and the “reversibility of antagonism on washout” value (hP2X [2]) is reported as “readily reversible on washout”. The “antagonist profile, clone 3 (block)” value [3] was less than 40% and the “sensitivity of ATP-activated currents to antagonism, compared with rat vas deferens/human bladder and PC12 forms” value [3] was “much less sensitive to antagonism”.

In the case of `Cc1nc(N=Nc2ccc(S(=O)(=O)O)cc2S(=O)(=O)O)c(COP(=O)(O)O)c(C=O)c1O` [PPADS, pyridoxal phosphate 6-azophenyl 2',4'-disulphonic acid], the IC50 (hP2X [2]) is reported as roughly 1000 nM, the “inhibition” value (hP2X [2]) is reported as “inhibited inward currents evoked by 10 μM ATP” and the “reversibility of antagonism on washout” value (hP2X [2]) is reported as “readily reversible on washout”. For the same compound, the “antagonist profile, clone 3 (block)” value [3] was less than 30% and the “sensitivity of ATP-activated currents to antagonism, compared with rat vas deferens/human bladder and PC12 forms” value [3] was “much less sensitive to antagonism”.

With `O=c1ccn([C@@H]2O[C@H](COP(=O)(O)OP(=O)(O)OP(=O)(O)O)[C@@H](O)[C@H]2O)c(=O)[nH]1` [UTP, uridine 5'-triphosphate sodium salt] the Emax at 100 µM (hP2X [1]) was 3.7 ± 1.8%.

Compound `Nc1ncnc2c1ncn2[C@@H]1O[C@H](COP(=O)(O)OP(=O)(O)CP(=O)(O)O)[C@@H](O)[C@H]1O` [d,β,γ-meATP, β,γ-methylene-D-ATP sodium salt] has an EC50 (hP2X [1]) of 24.1 ± 1.6 µM and a relative potency (hP2X [1]) of 0.034.
